The source of these data is US9669028B2, “Substituted 5-(pyrazin-2-yl)-1H-pyrazolo [3, 4-B] pyridine and pyrazolo [3, 4-B] pyridine derivatives as protein kinase inhibitors” (Arrien Pharmaceuticals LLC, priority 2011, dated 2017).

In brackets after ≈: the same amount, converted by molar mass. Several values for one entry are separate records, joined by “and”; a condition that tells them apart may be missing. Equal entries are not always repeated. A value given as a limit tells only on which side of the number the result lay.

In data set [1] the test system is Rat hepatoma (H4IIE) cell line. Description: In vitro toxicology, general cytotoxicity. Type of data set: cell-based. As to the method:
Cells were seeded into 96-well plates and cultured in medium containing 20% bovine serum. […] General cytotoxicity was evaluated by monitoring membrane integrity (MBR, cell supernatant), cell mass (PI) and mitochondrial function (cellular ATP levels). Rotenone was included as a positive control because it produces measurable effects in all three assays. DMSO at 0.5% in medium was included as a negative control. Three wells per exposure concentration were used in each assay. Results are summarized in Table 8 and are expressed as percent of control, with control values set at 100%. […] Test compounds 13 and 13 HCl were rank-ordered from most to least toxic based on individual membrane integrity and ATP responses as well as resultant TC50 values.
Test compounds 13 and 13 HCl were rank-ordered from highest to lowest probability of producing toxicity based first on membrane toxicity, then on ATP, and finally on cell mass (PI). It is important to note that within a given grouping compounds may be classified as to their primary effect being either cytotoxic, cytostatic, or reducing mitochondrial function. In general, compound responses above 80% of vehicle control are considered to be low-to-no effect, moderates generally rank 80% to 50% of vehicle control, and those compounds that cross the 50% mark are considered to have higher probability of toxicity.

The next data set is described as follows: in vivo. The following applies: male, Sprague Dawley, rat. An excerpt:
To investigate the pharmacokinetic profiles of test compound following intravenous bolus administration and oral gavage in male Sprague Dawley rats.

Data set [2] has as its system MPTP-injected C57 black mice. Description: MPTP mouse model, post-treatment study. It counts as in vivo. The following applies: post-administration, oral and i.v routes. The procedure: (§1) 32 C57 black mice (C57/bl6, 6-8 week old, 25-30 g) were purchased from Charles River Laboratories, Ohio. […] All animals were housed in Laboratory of Animal Resources vivarium at Iowa State University under standard conditions: constant temperature (22±1° C.), humidity (relative, 30%), and a 12-h light/dark cycle. Mice were allowed free access to food and water. Use of the animals and protocol procedures were approved and supervised by the Committee on Animal Care at Iowa State University (Ames, Iowa). Test compounds were dissolved in PBS for this study. Prior to treatment animals were pre-trained on rotarod for at least 3 minutes every day for three successive days. Group A animals were injected with saline (i.p.) to be used as controls. MPTP was dissolved in PBS and injected intraperitoneally (i.p.) at doses of 25 mg/kg, once daily for 5 days to group B, C and D animals. On day 4, prior to 4th MPTP injection, group C animals received test compounds (30 mg/kg, oral) daily for eight days. Similarly, on day 4, prior to 4th MPTP injection, group D animals received test compounds (5 mg/kg, i.v) daily for eight days. On day 9 (Post-test compounds administration) or day 12 (7 days post-MPTP), 4 animals/group were sacrificed, different brain regions including striatum and substantia nigra were dissected. Left striatum were used for neurochemical analysis. Other 4 animals/group were perfused and used for TH immunohistological studies.

The test system of data set [3] is MPTP-injected C57 black mice. As to the kind of experiment: MPTP mouse model, intravenous pre-treatment. It counts as in vivo. The following applies: 5 mg/kg i.v. As to the method: 24 C57 black mice (C57/bl6, 6-8 week old, and 25-30 g) were purchased from Charles River Laboratories, Ohio. […] Prior to treatment animals were pre-trained on rotarod for at least 3 minutes every day for three successive days. Test compound (5 mg/kg) was administered intravenously to group C animals, 24 h prior to MPTP-injection and continued daily for additional 11 days. MPTP was dissolved in PBS and injected intraperitoneally (i.p.) at doses of 25 mg/kg, once daily for 5 days to group B and C animals. Group A animals were injected with saline (i.p.) to be used as controls. Urine and Faeces were collected on Day 8, behavioural studies were performed on Day 9 (4-days post-MPTP). On day 12 (7 days post-MPTP), 4 animals/group were sacrificed, different brains regions including striatum and substantia nigra were dissected. Left striatum were used for neurochemical analysis. Other 4 animals/group were perfused and used for TH immunohistological studies.

The test system of data set [4] is MPTP-injected C57 black mice. As to the kind of experiment: MPTP mouse model of Parkinson's disease, oral pre-treatment. Type of data set: in vivo. To be noted: for protection against MPTP-induced TH cell loss and dopaminergic degeneration in substantia nigra and striatum: 10 mg/kg and 30 mg/kg oral; for locomotor activities in MPTP-injected mice / striatal dopamine levels in MPTP treated mice: orally administered, pre-treatment.

Data set [5] can be described thus: BBB post-treatment results, concentration in mice brains. Type of data set: in vivo, mouse. The following applies: pooled regions. The procedure: as §1, with “Other 4 animals/group were perfused and used for TH immunohistological studies.” left out
Another data set addresses recombinant human MAO-A (Homo sapiens (Human), UniProt P21397). Description: Inhibition of monoamine oxidase MAO-A. It counts as biochemical. The following applies: kynuramine 50 μM, 25 min at 37° C. As to the method:
(§2) Test compounds (0.01-100 μM) final DMSO concentration 0.1%, were incubated with recombinant human MAO-A (2 μg/mL) or MAO-B (2 μg/mL) in the presence of the probe substrate kynuramine (50 μM) for 25 min at 37° C. […] The reactions were terminated by addition of methanol containing internal standard for analytical quantification. The quenched samples were incubated at 4° C. for 10 min and centrifuged at 4° C. for 10 min. The supernatant was removed and analyzed by LC-MS/MS for the probe metabolite 4-hydroxyquinoline.

Another data set deals with recombinant human MAO-B (Homo sapiens (Human), UniProt P27338). As to the kind of experiment: Inhibition of monoamine oxidase MAO-B. It counts as biochemical. To be noted: kynuramine 50 μM, 25 min at 37° C. The procedure:
as §2

The target of another data set is LRRK2 (Homo sapiens (Human), UniProt Q5S007). Description: LRRK2 Kinase Assay. Type of data set: biochemical. The following applies: 10 μM ATP. Put shortly:
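Radiometric filter-binding assay: compound pre-incubated ~20 min with kinase and substrate peptide in 20 mM HEPES pH 7.5, 10 mM MgCl2, 1% DMSO, then 10 μM ATP with 33P-ATP added.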

For data set [6], the system named is 299 protein kinases+17 additional preview kinases. As to the kind of experiment: Protein Kinase Selectivity Profiler. It counts as biochemical, human. The following applies: LRRK2, LRRK2 G2019S, CHK1, DYRK1A, FLT3, MLK1, TNIK, TRKA; single dose 0.5 μM, 1 μM; 10 μM ATP. As to the method:
In vitro profiling of the 317 member kinase panel was performed at Reaction Biology Corporation using the “HotSpot” assay platform. Briefly, specific kinase/substrate pairs along with required cofactors were prepared in reaction buffer; 20 mM Hepes (pH 7.5), 10 mM MgCl2, 1 mM EGTA, 0.02% Brij35, 0.02 mg/ml BSA, 0.1 mM Na3VO4, 2 mM DTT, 1% DMSO. Compounds were delivered into the reaction, followed ˜20 min later by addition of a mixture of ATP (Sigma) and 33P ATP (PerkinElmer) to a final concentration of 10 μM. Reactions were carried out at 25° C. for 120 min, followed by spotting of the reactions onto P81 ion exchange filter paper (Whatman). Unbound phosphate was removed by extensive washing of filters in 0.75% phosphoric acid. […] IC50 values and curve fits were obtained using Prism (GraphPad Software). Kinome tree representations were prepared using Kinome Mapper (http://www.reactionbiology.com/apps/kinome/mapper/Launch Kinome.htm). Specifically for the LRRK2 enzyme the substrate LRRKtide (gene bank and protein access numbers NP_940980.2 Q5S007) and clone aa 970-2527 expressed in baculovirus in insect cells with N-terminal GST tag was employed in the study protocol. In the case of DYRK1A (SEQ ID NO 16) the substrate casein (gene bank and protein access numbers NP_001387 Q13627) full length clone expressed in insect with n-terminal tag was used.
A control compound was tested in 10-dose IC50 mode with 3-fold serial dilution starting at 20 μM. Reactions were carried out at 10 μM ATP. Data pages include raw data, % Enzyme activity (relative to DMSO controls), and curve fits.

In a further data set the target is DYRK1A (Homo sapiens (Human), UniProt Q13627). Description: In vitro DYRK1A inhibition assay. It counts as biochemical.
A further data set deals with LRRK2 G2019S (Homo sapiens (Human), UniProt Q5S007, G2019S). Description: LRRK2 G2019S Kinase Assay. Type of data set: biochemical. To be noted: 10 μM ATP. Put shortly: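 Radiometric filter-binding assay: enzyme, substrate peptide and compound were mixed on ice, ATP added, then incubated 20 min at 30° C. Reaction was stopped with phosphoric acid and the peptide captured on filters. Incorporated radioactivity was read by scintillation counting; staurosporine served as reference.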
LRRK2 G2019S, sequence (Q5S007 970-2527 G2019S): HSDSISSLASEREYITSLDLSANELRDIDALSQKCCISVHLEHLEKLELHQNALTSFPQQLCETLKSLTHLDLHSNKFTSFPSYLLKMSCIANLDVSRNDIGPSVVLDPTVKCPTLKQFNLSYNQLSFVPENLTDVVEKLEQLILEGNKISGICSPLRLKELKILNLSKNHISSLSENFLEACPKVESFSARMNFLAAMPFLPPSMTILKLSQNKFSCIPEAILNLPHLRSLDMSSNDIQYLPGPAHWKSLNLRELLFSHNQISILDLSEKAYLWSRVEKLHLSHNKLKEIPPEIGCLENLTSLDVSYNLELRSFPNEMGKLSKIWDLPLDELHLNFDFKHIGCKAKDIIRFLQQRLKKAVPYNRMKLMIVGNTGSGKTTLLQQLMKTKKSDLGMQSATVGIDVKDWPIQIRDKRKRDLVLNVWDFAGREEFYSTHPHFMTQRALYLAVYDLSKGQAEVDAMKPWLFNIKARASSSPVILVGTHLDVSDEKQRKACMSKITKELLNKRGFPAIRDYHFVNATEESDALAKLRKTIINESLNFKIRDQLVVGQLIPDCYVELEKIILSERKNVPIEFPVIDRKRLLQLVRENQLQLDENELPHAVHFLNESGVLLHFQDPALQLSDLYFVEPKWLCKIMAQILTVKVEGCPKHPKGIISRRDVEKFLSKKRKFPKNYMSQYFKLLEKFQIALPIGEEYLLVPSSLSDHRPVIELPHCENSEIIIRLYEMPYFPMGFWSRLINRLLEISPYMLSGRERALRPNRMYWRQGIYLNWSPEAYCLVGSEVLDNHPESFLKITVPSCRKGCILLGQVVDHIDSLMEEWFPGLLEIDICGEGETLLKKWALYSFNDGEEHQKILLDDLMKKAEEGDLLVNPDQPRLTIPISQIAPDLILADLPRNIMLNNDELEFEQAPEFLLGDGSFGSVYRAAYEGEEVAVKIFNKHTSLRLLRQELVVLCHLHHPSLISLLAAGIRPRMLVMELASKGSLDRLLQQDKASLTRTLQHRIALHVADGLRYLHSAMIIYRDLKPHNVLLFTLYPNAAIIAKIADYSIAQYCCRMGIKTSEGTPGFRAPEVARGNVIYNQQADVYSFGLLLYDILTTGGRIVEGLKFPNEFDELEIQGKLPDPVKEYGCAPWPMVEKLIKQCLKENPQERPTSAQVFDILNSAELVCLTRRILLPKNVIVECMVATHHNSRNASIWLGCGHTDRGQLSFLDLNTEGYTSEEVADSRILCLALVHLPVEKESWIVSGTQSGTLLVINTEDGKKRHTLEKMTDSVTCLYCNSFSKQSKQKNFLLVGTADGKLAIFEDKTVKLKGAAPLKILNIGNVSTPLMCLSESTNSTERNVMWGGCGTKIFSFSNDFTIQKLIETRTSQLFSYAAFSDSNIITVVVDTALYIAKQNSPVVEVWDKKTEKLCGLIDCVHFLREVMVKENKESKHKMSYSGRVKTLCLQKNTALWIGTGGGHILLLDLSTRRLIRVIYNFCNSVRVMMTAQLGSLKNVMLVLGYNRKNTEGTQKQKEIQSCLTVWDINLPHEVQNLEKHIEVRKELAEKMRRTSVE

recombinant human MAO-B, sequence (P27338 whole entry): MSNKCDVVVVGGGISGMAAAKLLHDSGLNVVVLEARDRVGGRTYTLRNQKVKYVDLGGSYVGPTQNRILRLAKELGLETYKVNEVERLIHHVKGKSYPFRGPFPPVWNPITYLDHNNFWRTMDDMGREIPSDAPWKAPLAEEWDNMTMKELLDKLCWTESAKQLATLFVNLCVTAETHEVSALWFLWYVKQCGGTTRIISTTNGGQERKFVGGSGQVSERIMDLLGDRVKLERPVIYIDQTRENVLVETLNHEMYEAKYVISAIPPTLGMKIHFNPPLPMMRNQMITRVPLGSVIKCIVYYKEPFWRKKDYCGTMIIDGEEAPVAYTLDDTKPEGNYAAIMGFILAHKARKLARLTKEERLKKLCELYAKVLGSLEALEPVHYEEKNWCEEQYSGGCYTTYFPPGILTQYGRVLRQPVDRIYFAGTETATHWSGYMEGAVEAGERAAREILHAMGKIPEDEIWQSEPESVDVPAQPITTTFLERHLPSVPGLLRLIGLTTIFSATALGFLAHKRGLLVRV
recombinant human MAO-A, sequence (P21397 whole entry): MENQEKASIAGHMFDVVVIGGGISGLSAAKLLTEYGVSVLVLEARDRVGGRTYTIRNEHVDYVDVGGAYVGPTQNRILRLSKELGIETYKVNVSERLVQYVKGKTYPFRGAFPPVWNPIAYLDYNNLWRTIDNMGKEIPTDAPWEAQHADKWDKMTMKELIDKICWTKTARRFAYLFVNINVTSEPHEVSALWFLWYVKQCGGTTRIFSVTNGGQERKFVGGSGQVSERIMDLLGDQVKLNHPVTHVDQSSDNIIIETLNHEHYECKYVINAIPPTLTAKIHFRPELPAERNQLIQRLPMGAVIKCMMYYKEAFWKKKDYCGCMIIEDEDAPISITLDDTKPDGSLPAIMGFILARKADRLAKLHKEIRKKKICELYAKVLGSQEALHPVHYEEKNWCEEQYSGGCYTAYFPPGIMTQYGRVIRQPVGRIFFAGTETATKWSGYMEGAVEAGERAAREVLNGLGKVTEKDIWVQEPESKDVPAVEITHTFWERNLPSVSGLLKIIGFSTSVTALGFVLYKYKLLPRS
LRRK2, sequence (Q5S007 970-2527): as the sequence (Q5S007 970-2527 G2019S) above, with S1050G counted along it

On to `Cc1n[nH]c2ncc(-c3cncc(NC4CCN(C)CC4)n3)cc12.Cl` [13 HCl, 6-(3-methyl-1H-pyrazolo[3,4-b]pyridin-5-yl)-N-(1-methylpiperidin-4-yl)pyrazin-2-amine hydrochloride], for which, in data set [1] (rat, 24 h), the “ATP TC50” value is >50 µM, the “Cell Mass TC50” value is >50 µM and the “Mem Tox TC50” value is >50 µM. Moreover, in data set [1] (rat, 24 h, 5 μM), the “ATP % Control” value amounted to 93%, the “Cell Mass % Control” value amounted to 89% and the “Mem Tox % Control” value turned out to be 93%. Further, in data set [1] (rat, 24 h, 10 μM), the “ATP % Control” value is 91%, the “Cell Mass % Control” value is 81% and the “Mem Tox % Control” value was 91%. For the same compound, in data set [1] (rat, 24 h, 50 μM), the “ATP % Control” value is listed as 78%, the “Cell Mass % Control” value is 62% and the “Mem Tox % Control” value is on record as 90%. This compound also had a solubility in the data set “physchem” of 50 µM. In “in vivo” (iv, 5 mg/kg), the AUC(0-t) turned out to be 1020 ng·h/mL, the Vd is 15.2 L/kg, the clearance worked out at 123 mL/min/kg and the half-life was 2.26 h. In addition, in the data set “in vivo” (po, 30 mg/kg), the AUC(0-t) is 1040 ng·h/mL, the Cmax worked out at 133 ng/mL, the F is recorded as 24% and the Tmax came out at 6.7 h. Further, in data set [2], the “protection against MPTP-induced histological deficits” value is “significantly protected”, the “protection against MPTP-induced motor-deficits” value is listed as “significantly protected” and the “protection against MPTP-induced neurochemical deficits” value was “not against neurochemical deficits”. Moreover, the “protection against MPTP-induced TH neuronal loss in the substantia nigra and in the striatum” value in [3] is recorded as “Protect Against MPTP-Induced TH Neuronal Loss”. Besides, in data set [4], the “protection against MPTP-induced TH cell loss and dopaminergic degeneration in substantia nigra and striatum” value is reported as “dose-dependent protection”; the “locomotor activities in MPTP-injected mice” value is recorded as “Improve Locomotor Activities”; the “striatal dopamine levels in MPTP treated mice” value is given as “Restore Striatal Dopamine Levels”. The “Calc. Conc. of test compound 13 HCl in Mice Brains” value in data set [5] (individual subjects, hydrochloride) was 2.92 ng/g and 1.36 ng/g and 2.32 ng/g and 3.09 ng/g and 3.79 ng/g and 2.74 ng/g and 3.03 ng/g and 2.72 ng/g. Besides, the “Calc. Conc. of test compound 13 HCl in Mice Brains, Mean” value in data set [5] (mean of subjects) is reported as 2.75 ng/g.

Regarding `c1cc2cc(-c3cncc(N4CCOCC4)n3)cnc2[nH]1` [Compound 148, 4-(6-(1H-pyrrolo[2,3-b]pyridin-5-yl)pyrazin-2-yl)morpholine], the IC50 on recombinant human MAO-A was > 100 µM. Also, the IC50 on recombinant human MAO-B amounted to 8.8 µM. In addition, the IC50 against LRRK2 was < 0.5 µM. In “in vivo” (iv, 5 mg/kg), this compound showed an AUC(0-t) of 1020 ng·h/mL, a Vd of 15.2 L/kg, a clearance of 123 mL/min/kg and a half-life of 2.26 h. In “in vivo” (po, 30 mg/kg), the AUC(0-t) worked out at 1040 ng·h/mL, the highest level (Cmax) was 133 ng/mL, the F worked out at 24% and the Tmax amounted to 6.7 h. Besides, in data set [2], the “protection against MPTP-induced histological deficits” value is on record as “significantly protected”, the “protection against MPTP-induced motor-deficits” value was “significantly protected” and the “protection against MPTP-induced neurochemical deficits” value is “not against neurochemical deficits”. Besides, in data set [6], the “% enzyme inhibition relative to DMSO controls” value is listed as 5-15%. In addition, on DYRK1A, the IC50 is < 0.5 µM. Moreover, at LRRK2 G2019S, the IC50 was < 0.5 µM. Besides, in data set [4], the “protection against MPTP-induced TH cell loss and dopaminergic degeneration in substantia nigra and striatum” value is listed as “dose-dependent protection”; the “locomotor activities in MPTP-injected mice” value is reported as “Improve Locomotor Activities”; the “striatal dopamine levels in MPTP treated mice” value is listed as “Restore Striatal Dopamine Levels”.

Take `C=C(C)[C@H]1Cc2c(ccc3c2O[C@@H]2COc4cc(OC)c(OC)cc4[C@@H]2C3=O)O1` [Rotenone, reference compound]: in [1] (0.001 μM, 24 hrs), the “ATP % Control” value turned out to be 98%, the “Cell Mass % Control” value came out at 105% and the “Mem Tox % Control” value is on record as 100%. For the same compound, in data set [1] (0.1 μM, 24 hrs), the “ATP % Control” value is on record as 34%, the “Cell Mass % Control” value came out at 54% and the “Mem Tox % Control” value came to 98%. Besides, in data set [1] (1 μM, 24 hrs), the “ATP % Control” value was determined as 4%, the “Cell Mass % Control” value is reported as 25% and the “Mem Tox % Control” value is on record as 46%. Further, in data set [1] (24 hrs), the “ATP TC50” value is 0.08 µM, the “Cell Mass TC50” value came out at 0.23 µM and the “Mem Tox TC50” value was 0.93 µM. Also, the solubility in the data set “physchem” was 1 µM (≈ 0.394 µg/mL).
